We go through nine compounds from PubChem BioAssay AID2060891 (Molecular Pharmacology Branch, DTP, NCI, 2025).

The subject of this test is K98450-129-R-PDC complex spheroid growth, percent test/control. Nature of the test: Anticancer human tumor K98450-129-R-PDC patient-derived colon adenocarcinoma cell line growth inhibition [RAS]. The note with it: for viability, T/C: stronger effect = lower value. An excerpt:
RAS pathway inhibitors in Combinations in Complex Spheroids
A high-throughput screen of multi-cell type tumor spheroids was designed to identify active combinations of RAS pathway inhibitors and targeted small molecules. Complex spheroids include a stromal component modeled by human endothelial cells (HUVEC) and fibroblasts modeled by human mesenchymal stem cells (MSCs). The concentration ranges selected for each drug and investigational agent were based upon clinically achievable concentrations if the clinical Cmax of the agent was known.
Compounds. The drugs and investigational agents: abemaciclib (NSC768073), cobimetinib (NSC768068), divarasib (GDC6063, NSC841802), docetaxel (NSC628503), GDC-1971 (RLY-1971, NSC841576), gemcitabine (NSC613327), inavolisib (NSC800729), ipatasertib (NSC767898), KB-0742 (NSC834161), MRTX-1133 (NSC836407), osimertinib (NSC779217), RMC-4630 (NSC839698), RMC-6236 (NSC851965), RMC-6291 (NSC852671), Ro-3306 (NSC812927), sapanisertib (NSC764658), SN-38 (NSC673596), staurosporine (NSC755774), SY5609 (NSC837396), and tovorafenib (DAY101, NSC766906), were obtained from the National Cancer Institute (NCI) Developmental Therapeutics Program Chemical Repository. The FDA-approved anticancer drug set is available from the NCI Developmental Therapeutics Program. […] The stock solutions were prepared in dimethyl sulfoxide (DMSO, Sigma-Aldrich, St. Louis, MO, cat. D2650) at 800-fold the tested concentration and stored at -70 degrees C prior to their use. All drugs and investigational agents were tested over a range starting from a high concentration at or near the clinical Cmax and decreasing in half-log increments. If the clinical Cmax for an agent had not been determined, the highest concentration tested was 10 microM.
Cell Culture. All cells were maintained in an incubator at 37 degrees C and 5% CO2 with 95% humidity. The PDC lines were cultured according to standard operating procedures established by the NCI PDMR. All PDCs were thawed and cultured in Matrigel-coated flasks prepared with a working solution of 1X Ham's F-12 nutrient mix, without supplementation (Invitrogen, Waltham, MA, cat. 11765054), 100 U/mL penicillin-streptomycin (Invitrogen, cat. 15140122), and 2.5% Matrigel (Corning Inc., Corning, NY, cat. 354248) for the first three passages. The 362531-283-R-J2-PDC and 782815-120-R-J1-PDC lines were cultured in 6C/Colon 1B media, which includes advanced DMEM/F-12 (Thermo Fisher Scientific, cat. 12634028), 10 mM HEPES (Thermo Fisher Scientific, cat. 15630080), 1X GlutaMAX supplement (Thermo Fisher Scientific, cat. 35050061), 0.1 mg/mL primocin (InvivoGen, San Diego, CA, cat. ant-pm-2), 10% defined fetal bovine serum, heat inactivated (HyClone Laboratories Inc., Logan, UT, cat. SH30070.03HI), 50% L-WRN conditioned media (ATCC, cat. CRL-3276), 1.25 mM N-Acetyl-L-cysteine (Sigma-Aldrich, cat. A9165), 10 mM nicotinamide (Sigma-Aldrich, cat. N0636), 1X B-27 supplement (Thermo Fisher Scientific, cat. 17504044), 1X N-2 supplement (Thermo Fisher Scientific, cat. 17502048), 50 ng/mL human EGF (Thermo Fisher Scientific, cat. PHG0311), and 10 microM Y-27632 dihydrochloride (Tocris Bioscience, cat. 1254). The K12877-001-R-J1-PDC line was cultured in 6I media, which includes all 6C/Colon 1B media plus 10 ng/mL human FGF-10 (PeproTech, cat. 100-26), 1 ng/mL human FGF-2 (PeproTech, cat. 100-18B), 1 µM prostaglandin E2 (Tocris Bioscience, cat. 2296), […] hydrocortisone (Sigma-Aldrich, cat. H4001), and […] bovine insulin (Sigma-Aldrich, cat. I6634). The K86415-001-R-J1-PDC line was cultured in 6D media, which includes all 6C/Colon 1B media components minus the L-WRN conditioned media. The 485176-168-R4-J1-PDC was cultured in PANC media, which includes all 6C/Colon 1B media plus 100 ng/mL human FGF-10 (PeproTech, cat. 100-26), 500 nM SB-431542 (Selleckchem, cat. S1067), and 10 nM gastrin (Tocris Bioscience, cat. 3006). […]

Several values for one entry are separate records, joined by “and”; a condition that tells them apart may be missing. Equal entries are not always repeated.
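Further: spheroids exposed to agents for seven days before the viability readout.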
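Wherever viability, T/C is given: luminescence used as a proxy for viable cell amount.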

The term viability, T/C denotes the ratio of treated to control. Broadly, the IC50 is the point on the concentration scale where inhibition reaches its midpoint. Turning to `C#Cc1c(F)ccc2cc(O)cc(-c3ncc4c(N5CC6CCC(C5)N6)nc(OCC56CCCN5CC(F)C6)nc4c3F)c12` (stereo not drawn), the viability, T/C reads like this: (compound 0.0316 µM) 106% [middle of 8 runs]; (compound 0.1 µM) 105% [middle of 7 runs]; (compound 0.316 µM) 105% [middle of 8 runs]; (compound 1 µM) 102% [middle of 8 runs]; (compound 3.16 µM) 102% [middle of 8 runs]; (compound 10 µM) 95.1% [middle of 8 runs]. Moreover, where the note is “compound alone, run of 06/10/2024”, the half-maximal inhibitory concentration (IC50) was greater than 10 µM.
Take `CC(=O)OC12COC1CC(O)C1(C)C(=O)C(O)C3=C(C)C(OC(=O)C(O)C(NC(=O)OC(C)(C)C)c4ccccc4)CC(O)(C(OC(=O)c4ccccc4)C21)C3(C)C` (stereo not drawn): the viability, T/C runs as follows: (compound 0.0316 µM) 104% [middle of 4 runs]; (compound 0.316 µM) 65.8% [middle of 4 runs]; (compound 1 µM) 50.8% [middle of 4 runs]; (compound 3.16 µM) 42.5% [middle of 4 runs]; (compound 10 µM) 43.9% [middle of 4 runs].
`CC(C)NCC(C(=O)N1CCN(c2ncnc3c2C(C)CC3O)CC1)c1ccc(Cl)cc1` (stereo not drawn): the viability, T/C reads like this: (compound 0.0316 µM) 103% [middle of 4 runs]; (compound 0.1 µM) 97.1% [middle of 4 runs]; (compound 0.316 µM) 104% (2×) and 111% and 88.1%; (compound 1 µM) 102% [middle of 4 runs]; (compound 3.16 µM) 104% [middle of 4 runs]; (compound 10 µM) 101% [middle of 4 runs]. Besides, the IC50 (curve of compound) is greater than 10 µM.
For the compound `CC(Nc1ccc2c(c1)OCCn1cc(N3C(=O)OCC3C(F)F)nc1-2)C(N)=O` (stereo not drawn), the viability, T/C was 99.5% [middle of 4 runs] (compound 0.0316 µM); 91.6% [middle of 4 runs] (compound 0.1 µM); 91.2% [middle of 4 runs] (compound 0.316 µM); 88.9% [middle of 4 runs] (compound 1 µM); 81.3% [middle of 4 runs] (compound 3.16 µM); 73.7% [middle of 4 runs] (compound 10 µM). For the same compound, the IC50 (curve of compound) is greater than 10 µM.
As to `CC1(O)CCCC1n1c(=O)c(C(F)F)cc2cnc(NC3CCN(S(C)(=O)=O)CC3)nc21` (stereo not drawn), the viability, T/C is, setting by setting: (compound 0.0316 µM) 102% (2×) and 99.8% and 90.2%; (compound 0.1 µM) 95.5% [middle of 4 runs]; (compound 0.316 µM) 91.1% [middle of 4 runs]; (compound 1 µM) 79% [middle of 4 runs]; (compound 3.16 µM) 79% [middle of 4 runs]; (compound 10 µM) 73.3% [middle of 4 runs]. The half-inhibitory concentration (IC50) (curve of compound) is greater than 10 µM.
As for `CCC(CC)c1cc(NC2CCC(N)C2)n2nccc2n1` (stereo not drawn), the viability, T/C (compound 0.0316 µM) was 99.1% [middle of 4 runs]; the viability, T/C (compound 0.316 µM) is 99.2% [middle of 4 runs]; the viability, T/C (compound 1 µM) was 102% (2×) and 98% and 94%; the viability, T/C (compound 3.16 µM) is 90.9% [middle of 4 runs]; the viability, T/C (compound 10 µM) was 17.7% [middle of 4 runs]. For the same compound, under “curve of compound”, the IC50 is 5.89 µM [middle of 4 runs].
On to `C[C@@H](NC(=O)c1ncnc(N)c1Cl)c1ncc(C(=O)Nc2cc(C(F)(F)F)c(Cl)cn2)s1`, for which the viability, T/C reads like this: (compound 0.0316 µM) 110% [middle of 4 runs]; (compound 0.316 µM) 122% [middle of 4 runs]; (compound 1 µM) 126% [middle of 4 runs]; (compound 10 µM) 106% [middle of 4 runs]. In addition, under “curve of compound”, the IC50 is greater than 10 µM.
In the case of `Cc1nc(N2CCC3(CC2)COC(C)C3N)c(CO)nc1Sc1ccnc(N)c1Cl` (stereo not drawn), the viability, T/C by setting is: (compound 0.0316 µM) 96.9% [middle of 4 runs]; (compound 0.1 µM) 92.8% [middle of 4 runs]; (compound 0.316 µM) 86.5% [middle of 4 runs]; (compound 1 µM) 77.2% [middle of 4 runs]; (compound 3.16 µM) 53.1% [middle of 4 runs]; (compound 10 µM) 28.8% [middle of 4 runs]. For the setting “curve of compound”, the IC50 is 3.66 µM [middle of 4 runs].
On to `NC1c2ccccc2OC12CCN(c1cnc3c(N4CCCc5ncccc54)n[nH]c3n1)CC2` (stereo not drawn), for which the viability, T/C by setting is: (compound 0.0316 µM) 90.2% [middle of 4 runs]; (compound 0.1 µM) 67.2% [middle of 4 runs]; (compound 0.316 µM) 39.9% [middle of 4 runs]; (compound 1 µM) 25.4% [middle of 4 runs]; (compound 3.16 µM) 19.4% [middle of 4 runs]; (compound 10 µM) 25% [middle of 4 runs]. In addition, under “curve of compound”, the IC50 was 193 nM [middle of 4 runs].
